Laboratory results taken from PubChem BioAssay (NCI).
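48-hour exposure; five concentrations; linearly interpolated endpoints. TGI is the concentration that stops growth completely.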

What was measured:
Assay in all cases: growth of human tumour cells (NCI), 48 h
CCRF-CEM leukemia = system: CCRF-CEM leukemia
OVCAR-3 ovarian = system: OVCAR-3 ovarian
OVCAR-5 ovarian = system: OVCAR-5 ovarian
SK-MEL-5 melanoma = system: SK-MEL-5 melanoma
HOP-62 NSCLC = system: HOP-62 NSCLC
SF-268 CNS = system: SF-268 CNS
SW-620 colon = system: SW-620 colon
HCT-15 colon = system: HCT-15 colon
IGROV1 ovarian = system: IGROV1 ovarian
RPMI-8226 leukemia = system: RPMI-8226 leukemia
COLO 205 colon = system: COLO 205 colon
HCT-116 colon = system: HCT-116 colon
MOLT-4 leukemia = system: MOLT-4 leukemia
SF-295 CNS = system: SF-295 CNS
KM12 colon = system: KM12 colon
DMS 114 small cell lung = system: DMS 114 small cell lung
UACC-257 melanoma = system: UACC-257 melanoma
OVCAR-8 ovarian = system: OVCAR-8 ovarian
UO-31 renal = system: UO-31 renal
MALME-3M melanoma = system: MALME-3M melanoma
SK-MEL-2 melanoma = system: SK-MEL-2 melanoma
RXF 393 renal = system: RXF 393 renal
DLD-1 colon = system: DLD-1 colon
NCI-H460 lung = system: NCI-H460 lung
HL-60(TB) leukemia = system: HL-60(TB) leukemia
NCI-H23 lung = system: NCI-H23 lung
M19-MEL melanoma = system: M19-MEL melanoma
A498 renal = system: A498 renal
SN12C renal = system: SN12C renal
HCC-2998 colon = system: HCC-2998 colon
TK-10 renal = system: TK-10 renal
DMS 273 small cell lung = system: DMS 273 small cell lung
LXFL 529 NSCLC = system: LXFL 529 NSCLC
M14 melanoma = system: M14 melanoma
CAKI-1 renal = system: CAKI-1 renal
KM20L2 colon = system: KM20L2 colon
SNB-78 CNS = system: SNB-78 CNS
HT29 colon = system: HT29 colon
LOX IMVI melanoma = system: LOX IMVI melanoma
UACC-62 melanoma = system: UACC-62 melanoma
A549 NSCLC = system: A549 NSCLC
OVCAR-4 ovarian = system: OVCAR-4 ovarian
SF-539 CNS = system: SF-539 CNS
SR leukemia = system: SR leukemia
HOP-18 NSCLC = system: HOP-18 NSCLC
NCI-H226 lung = system: NCI-H226 lung
K-562 leukemia = system: K-562 leukemia
ACHN renal = system: ACHN renal
SNB-75 CNS = system: SNB-75 CNS
HOP-92 NSCLC = system: HOP-92 NSCLC
786-0 renal = system: 786-0 renal
U251 CNS = system: U251 CNS
EKVX NSCLC = system: EKVX NSCLC
SK-MEL-28 melanoma = system: SK-MEL-28 melanoma
SK-OV-3 ovarian = system: SK-OV-3 ovarian
NCI-H522 lung = system: NCI-H522 lung
SNB-19 CNS = system: SNB-19 CNS

In the case of `COP(=O)(CC(=O)C1OC(C)(C)OC1C(O)COCc1ccccc1)OC` (stereo unspecified), the TGI (CCRF-CEM leukemia) is reported as over 100 µM, the TGI (OVCAR-3 ovarian) is reported as over 100 µM and the TGI (OVCAR-5 ovarian) is reported as over 100 µM. The TGI (SK-MEL-5 melanoma) was over 100 µM, the TGI (HOP-62 NSCLC) was over 100 µM and the TGI (SF-268 CNS) was over 100 µM. It also gave a TGI (SW-620 colon) of over 100 µM, a TGI (HCT-15 colon) of over 100 µM and a TGI (IGROV1 ovarian) of over 100 µM. The TGI (RPMI-8226 leukemia) was over 100 µM, the TGI (COLO 205 colon) was over 100 µM and the TGI (HCT-116 colon) was over 100 µM. For the same compound, the TGI (MOLT-4 leukemia) was over 100 µM, the TGI (SF-295 CNS) was over 100 µM and the TGI (KM12 colon) was over 100 µM. For the same compound, the TGI (DMS 114 small cell lung) was over 100 µM, the TGI (UACC-257 melanoma) was over 100 µM and the TGI (OVCAR-8 ovarian) was over 100 µM. It also gave a TGI (UO-31 renal) of over 100 µM, a TGI (MALME-3M melanoma) of over 100 µM and a TGI (SK-MEL-2 melanoma) of over 100 µM. For the same compound, the TGI (RXF 393 renal) was over 100 µM, the TGI (DLD-1 colon) was over 100 µM and the TGI (NCI-H460 lung) was over 100 µM. For the same compound, the TGI (HL-60(TB) leukemia) was over 100 µM, the TGI (NCI-H23 lung) was over 100 µM and the TGI (M19-MEL melanoma) was over 100 µM. It also gave a TGI (A498 renal) of over 100 µM, a TGI (SN12C renal) of over 100 µM and a TGI (HCC-2998 colon) of over 100 µM. It also gave a TGI (TK-10 renal) of over 100 µM, a TGI (DMS 273 small cell lung) of over 100 µM and a TGI (LXFL 529 NSCLC) of over 100 µM. For the same compound, the TGI (M14 melanoma) was over 100 µM, the TGI (CAKI-1 renal) was over 100 µM and the TGI (KM20L2 colon) was over 100 µM. It also gave a TGI (SNB-78 CNS) of over 100 µM, a TGI (HT29 colon) of over 100 µM and a TGI (LOX IMVI melanoma) of over 100 µM. It also gave a TGI (UACC-62 melanoma) of over 100 µM, a TGI (A549 NSCLC) of over 100 µM and a TGI (OVCAR-4 ovarian) of over 100 µM. For the same compound, the TGI (SF-539 CNS) was over 100 µM, the TGI (SR leukemia) was over 100 µM and the TGI (HOP-18 NSCLC) was over 100 µM. It also gave a TGI (NCI-H226 lung) of over 100 µM, a TGI (K-562 leukemia) of over 100 µM and a TGI (ACHN renal) of over 100 µM. For the same compound, the TGI (SNB-75 CNS) was over 100 µM, the TGI (HOP-92 NSCLC) was over 100 µM and the TGI (786-0 renal) was over 100 µM. The TGI (U251 CNS) was over 100 µM, the TGI (EKVX NSCLC) was over 100 µM and the TGI (SK-MEL-28 melanoma) was over 100 µM.
With `CN(C)c1ccc(C(C#N)NNC(=O)Cc2ccccc2)cc1` (stereo unspecified) the TGI (CCRF-CEM leukemia) was over 100 µM, the TGI (OVCAR-3 ovarian) was over 100 µM and the TGI (OVCAR-5 ovarian) was over 100 µM. The TGI (SK-MEL-5 melanoma) was over 100 µM, the TGI (HOP-62 NSCLC) was over 100 µM and the TGI (SF-268 CNS) was over 100 µM. It also gave a TGI (SW-620 colon) of over 100 µM, a TGI (HCT-15 colon) of over 100 µM and a TGI (IGROV1 ovarian) of over 100 µM. The TGI (RPMI-8226 leukemia) was over 100 µM, the TGI (COLO 205 colon) was over 100 µM and the TGI (HCT-116 colon) was over 100 µM. It also gave a TGI (MOLT-4 leukemia) of over 100 µM, a TGI (SF-295 CNS) of over 100 µM and a TGI (KM12 colon) of over 100 µM. It also gave a TGI (DMS 114 small cell lung) of over 100 µM, a TGI (UACC-257 melanoma) of over 100 µM and a TGI (OVCAR-8 ovarian) of over 100 µM. For the same compound, the TGI (UO-31 renal) was over 100 µM, the TGI (MALME-3M melanoma) was over 100 µM and the TGI (SK-MEL-2 melanoma) was over 100 µM. It also gave a TGI (RXF 393 renal) of over 100 µM, a TGI (DLD-1 colon) of over 100 µM and a TGI (NCI-H460 lung) of over 100 µM. It also gave a TGI (HL-60(TB) leukemia) of over 100 µM, a TGI (NCI-H23 lung) of over 100 µM and a TGI (M19-MEL melanoma) of over 100 µM. For the same compound, the TGI (SN12C renal) was over 100 µM, the TGI (SK-OV-3 ovarian) was over 100 µM and the TGI (TK-10 renal) was over 100 µM. The TGI (DMS 273 small cell lung) was over 100 µM, the TGI (LXFL 529 NSCLC) was over 100 µM and the TGI (M14 melanoma) was over 100 µM. The TGI (CAKI-1 renal) was over 100 µM, the TGI (KM20L2 colon) was over 100 µM and the TGI (SNB-78 CNS) was over 100 µM. It also gave a TGI (HT29 colon) of over 100 µM, a TGI (LOX IMVI melanoma) of over 100 µM and a TGI (UACC-62 melanoma) of over 100 µM. It also gave a TGI (A549 NSCLC) of over 100 µM, a TGI (OVCAR-4 ovarian) of over 100 µM and a TGI (SF-539 CNS) of over 100 µM. For the same compound, the TGI (SR leukemia) was over 100 µM, the TGI (HOP-18 NSCLC) was over 100 µM and the TGI (NCI-H226 lung) was over 100 µM. It also gave a TGI (K-562 leukemia) of over 100 µM, a TGI (NCI-H522 lung) of over 100 µM and a TGI (ACHN renal) of over 100 µM. For the same compound, the TGI (SNB-75 CNS) was over 100 µM, the TGI (HOP-92 NSCLC) was over 100 µM and the TGI (786-0 renal) was over 100 µM. For the same compound, the TGI (U251 CNS) was over 100 µM and the TGI (SK-MEL-28 melanoma) was over 100 µM.
For `O=C(c1ccccc1)C(c1ccccc1)C1(O)C(=O)Nc2c(Cl)ccc(Cl)c21` (stereo unspecified), the TGI (CCRF-CEM leukemia) was 46.6 µM, the TGI (OVCAR-3 ovarian) was 32.4 µM and the TGI (OVCAR-5 ovarian) was 35.5 µM. The TGI (SNB-19 CNS) was over 85.6 µM, the TGI (SK-MEL-5 melanoma) was 34.1 µM and the TGI (HOP-62 NSCLC) was 49.8 µM. For the same compound, the TGI (SF-268 CNS) was 54 µM, the TGI (SW-620 colon) was 37.9 µM and the TGI (HCT-15 colon) was 36.2 µM. It also gave a TGI (IGROV1 ovarian) of 42.7 µM, a TGI (RPMI-8226 leukemia) of 40.8 µM and a TGI (COLO 205 colon) of 38.5 µM. It also gave a TGI (HCT-116 colon) of 31 µM, a TGI (MOLT-4 leukemia) of 49 µM and a TGI (SF-295 CNS) of 31.1 µM. For the same compound, the TGI (KM12 colon) was 50.5 µM, the TGI (DMS 114 small cell lung) was 37.2 µM and the TGI (UACC-257 melanoma) was 29.9 µM. The TGI (OVCAR-8 ovarian) was 44.7 µM, the TGI (UO-31 renal) was 39.1 µM and the TGI (MALME-3M melanoma) was 31.3 µM. For the same compound, the TGI (SK-MEL-2 melanoma) was 39.5 µM, the TGI (RXF 393 renal) was 33.8 µM and the TGI (DLD-1 colon) was 35 µM. For the same compound, the TGI (NCI-H460 lung) was 56.8 µM, the TGI (HL-60(TB) leukemia) was 38.5 µM and the TGI (NCI-H23 lung) was 35.6 µM. It also gave a TGI (A498 renal) of 64.6 µM, a TGI (SN12C renal) of 31.8 µM and a TGI (SK-OV-3 ovarian) of over 60.8 µM. For the same compound, the TGI (HCC-2998 colon) was 77.7 µM, the TGI (TK-10 renal) was over 67.3 µM and the TGI (DMS 273 small cell lung) was 42.9 µM. It also gave a TGI (LXFL 529 NSCLC) of 31.2 µM, a TGI (M14 melanoma) of 30.7 µM and a TGI (CAKI-1 renal) of 39.8 µM. For the same compound, the TGI (KM20L2 colon) was over 100 µM, the TGI (SNB-78 CNS) was 64 µM and the TGI (HT29 colon) was 47.1 µM. It also gave a TGI (LOX IMVI melanoma) of 28 µM, a TGI (UACC-62 melanoma) of 33.8 µM and a TGI (A549 NSCLC) of over 69.1 µM. The TGI (OVCAR-4 ovarian) was 13.4 µM, the TGI (SF-539 CNS) was 44.5 µM and the TGI (HOP-18 NSCLC) was 49.3 µM. For the same compound, the TGI (K-562 leukemia) was 35 µM, the TGI (NCI-H522 lung) was 34.9 µM and the TGI (ACHN renal) was 31.7 µM. The TGI (SNB-75 CNS) was 39.2 µM, the TGI (HOP-92 NSCLC) was 35.4 µM and the TGI (786-0 renal) was 39.9 µM. For the same compound, the TGI (U251 CNS) was 78.8 µM, the TGI (EKVX NSCLC) was 32.6 µM and the TGI (SK-MEL-28 melanoma) was 34.6 µM.
